Where two headings read alike, the source gives them in different places.
Columns and labels:
NSD2 [1-1365] = NSD2 [1-1365] (Homo sapiens (Human), UniProt O96028); test: LC-MS/MS-based NSD2 enzymatic assay (SAH production); type: biochemical; details: read-out: NSD2 IC50
Method in brief: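 SAH formed was measured by LC-MS/MS using d4-SAH as internal standard and an SAH calibration curve. Compounds were preincubated 20 min with NSD2 [1-1365] and SAM; mouse-liver nucleosome then started a 90 min room-temperature reaction (8 nM enzyme, 1 μM SAM, 400 nM nucleosome final, pH 8.0), stopped with TFA.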

[1] = test system: cellular H3K36me2 level in thyroid carcinoma cell line CGTH-W-1 (NSD2 E1099K); test: H3K36me2 cellular ELISA assay in CGTH-W-1 line; type: cell-based; details: Homo sapiens, CGTH-W-1, 72 h, read-out: H3K36me2 ELISA in CGTH-W-1
Method in brief: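 After 72 h compound treatment of NSD2 E1099K-mutant CGTH-W-1 cells, H3K36me2 and total H3 were quantified by ELISA with chemiluminescent read-out. A parallel-seeded plate gave cell viability by CellTiter-Glo.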

[2] = test system: cellular H3K36me2 level in multiple myeloma cell line KMS11 (t(4;14)+); test: H3K36me2 cellular ELISA assay in KMS11-Par line; type: cell-based; details: Homo sapiens, KMS-11, ELISA, read-out: H3K36me2 ELISA in KMS11-Par
Method in brief: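 After 72 h compound exposure, HCl-extracted histones from KMS11 (t(4;14)+) cells were probed by ELISA for H3K36me2 against total H3 with a chemiluminescence read-out. Cells were plated at 1,250/well in Opti-MEM plus B-27 and N2 the day before. A parallel CellTiter-Glo plate tracked viability.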

[3] = NSD2 biochemical activity, class symbols
[4] = KMS11-Par line (t(4;14)+), 72 hours treatment

NSD2 [1-1365], sequence (O96028 whole entry): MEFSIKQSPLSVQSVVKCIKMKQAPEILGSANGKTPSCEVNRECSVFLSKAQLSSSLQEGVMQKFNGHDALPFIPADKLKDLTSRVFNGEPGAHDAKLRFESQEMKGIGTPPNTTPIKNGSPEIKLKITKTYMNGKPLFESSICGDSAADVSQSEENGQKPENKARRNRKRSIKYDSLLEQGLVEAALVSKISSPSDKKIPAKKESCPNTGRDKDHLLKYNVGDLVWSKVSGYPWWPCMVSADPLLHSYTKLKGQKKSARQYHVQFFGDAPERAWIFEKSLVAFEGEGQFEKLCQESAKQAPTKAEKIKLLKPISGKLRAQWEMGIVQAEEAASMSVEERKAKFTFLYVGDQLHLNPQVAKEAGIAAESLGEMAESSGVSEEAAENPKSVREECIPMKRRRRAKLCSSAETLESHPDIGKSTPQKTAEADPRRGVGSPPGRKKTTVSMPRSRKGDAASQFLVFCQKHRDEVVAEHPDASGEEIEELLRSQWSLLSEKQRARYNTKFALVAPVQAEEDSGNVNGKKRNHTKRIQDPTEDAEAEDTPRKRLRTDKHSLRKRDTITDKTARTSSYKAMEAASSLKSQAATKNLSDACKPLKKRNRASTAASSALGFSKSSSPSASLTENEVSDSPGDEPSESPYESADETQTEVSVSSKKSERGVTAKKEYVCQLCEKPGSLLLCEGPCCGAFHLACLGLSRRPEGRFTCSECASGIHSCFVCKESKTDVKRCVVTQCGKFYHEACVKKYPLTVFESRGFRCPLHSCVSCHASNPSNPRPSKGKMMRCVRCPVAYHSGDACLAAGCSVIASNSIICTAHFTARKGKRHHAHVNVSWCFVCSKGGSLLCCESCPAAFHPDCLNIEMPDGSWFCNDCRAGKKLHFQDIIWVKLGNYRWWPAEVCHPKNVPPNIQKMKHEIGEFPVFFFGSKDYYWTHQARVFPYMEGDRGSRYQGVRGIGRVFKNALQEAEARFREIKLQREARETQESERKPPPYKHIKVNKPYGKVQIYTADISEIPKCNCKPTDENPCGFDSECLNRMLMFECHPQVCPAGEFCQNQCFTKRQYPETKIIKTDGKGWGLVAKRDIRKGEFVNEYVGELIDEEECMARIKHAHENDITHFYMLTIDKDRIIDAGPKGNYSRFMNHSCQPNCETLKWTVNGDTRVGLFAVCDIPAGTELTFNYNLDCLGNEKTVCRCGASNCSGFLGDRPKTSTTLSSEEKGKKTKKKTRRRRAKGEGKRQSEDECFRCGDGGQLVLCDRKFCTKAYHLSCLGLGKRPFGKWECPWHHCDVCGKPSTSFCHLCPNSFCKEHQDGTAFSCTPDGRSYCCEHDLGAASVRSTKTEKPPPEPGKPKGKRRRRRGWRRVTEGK

SMILES	IC50 (NSD2 [1-1365]) [nM]	IC50 [1] [nM]	IC50 ([2]; KMS11-Par line, 72 hours) [nM]	IC50 (NSD2 [1-1365]; [3]) [nM]	IC50 [2, 4] [nM]
COc1ccc(-c2cc(Cn3cnc4c(N)ncnc43)c(N3CCC[C@](N)(c4ccc(F)c(C)n4)C3)cn2)cc1 [Example 241, (R)-9-((5-(3-amino-3-(5-fluoro-6-methylpyridin-2-yl)piperidin-1-yl)-2-(4-methoxyphenyl)pyridin-4-yl)methyl)-9H-purin-6-amine]	10 to 1000	1190	4080	–	–
Nc1ncnc2c1ncn2Cc1cc(-c2ccc(F)cc2C(F)F)ncc1N1CCC[C@](N)([C@@H](O)C(F)F)C1 [Example 158, (R)-1-((R)-3-amino-1-(4-((6-amino-9H-purin-9-yl)methyl)-6-(2-(difluoromethyl)-4-fluorophenyl)pyridin-3-yl)piperidin-3-yl)-2,2-difluoroethan-1-ol]	–	100	–	1 to 10	802
Nc1ncnc2c1ncn2Cc1cc(-c2cc(F)c(OC(F)F)cc2F)ncc1N1CCC[C@](N)([C@@H](O)C(F)F)C1 [Example 150, (R)-1-((R)-3-amino-1-(4-((6-amino-9H-purin-9-yl)methyl)-6-(4-(difluoromethoxy)-2,5-difluorophenyl)pyridin-3-yl)piperidin-3-yl)-2,2-difluoroethan-1-ol]	–	307	–	10 to 1000	1670
COc1ccc(-c2cc(Cn3cnc4c(N)ncnc43)c(N3CCC[C@](N)([C@@H](C)O)C3)cn2)cc1F [Example 90, (R)-1-((R)-3-amino-1-(4-((6-amino-9H-purin-9-yl)methyl)-6-(3-fluoro-4-methoxyphenyl)pyridin-3-yl)piperidin-3-yl)ethan-1-ol]	–	239	–	1 to 10	432
COc1ccc(-c2cc(Cn3cnc4c(N)ncnc43)c(N3CCC[C@](N)([C@@H](O)C(F)F)C3)cn2)cc1Cl [Example 121, (R)-1-((R)-3-amino-1-(4-((6-amino-9H-purin-9-yl)methyl)-6-(3-chloro-4-methoxyphenyl)pyridin-3-yl)piperidin-3-yl)-2,2-difluoroethan-1-ol]	–	683	–	1 to 10	2610
Nc1ncnc2c1ncn2Cc1cc(-c2ccc(F)cn2)ncc1N1CCC[C@](N)([C@@H](O)C(F)F)C1 [Example 155, (R)-1-((R)-3-amino-1-(4-((6-amino-9H-purin-9-yl)methyl)-5′-fluoro-[2,2′-bipyridin]-5-yl)piperidin-3-yl)-2,2-difluoroethan-1-ol]	–	1170	–	10 to 1000	16400
Nc1ncnc2c1ncn2Cc1cc(-c2cc(F)c(F)cc2F)ncc1N1CCC[C@](N)([C@H](O)C(F)F)C1 [Example 157, (S)-1-((R)-3-amino-1-(4-((6-amino-9H-purin-9-yl)methyl)-6-(2,4,5-trifluorophenyl)pyridin-3-yl)piperidin-3-yl)-2,2-difluoroethan-1-ol]	–	385	–	1 to 10	1310
Nc1ncnc2c1ncn2Cc1cc(-c2ccc(F)c(Cl)n2)ncc1N1CCC[C@](N)(c2cccc(Cl)n2)C1 [Example 191, (R)-9-((5-(3-amino-3-(6-chloropyridin-2-yl)piperidin-1-yl)-6′-chloro-5′-fluoro-[2,2′-bipyridin]-4-yl)methyl)-9H-purin-6-amine]	10 to 1000	1380	4560	–	–
Nc1ncnc2c1ncn2Cc1cc(-c2ccc(F)cc2)ncc1N1CCC[C@](N)(c2ccc(F)c(Cl)n2)C1 [Example 221, (R)-9-((5-(3-amino-3-(6-chloro-5-fluoropyridin-2-yl)piperidin-1-yl)-2-(4-fluorophenyl)pyridin-4-yl)methyl)-9H-purin-6-amine]	1 to 10	269	1290	–	–
Cn1ncc2cc(-c3cc(Cn4cnc5c(N)ncnc54)c(N4CCC[C@](N)([C@@H](O)C(F)F)C4)cn3)c(F)cc21 [Example 123, (R)-1-((R)-3-amino-1-(4-((6-amino-9H-purin-9-yl)methyl)-6-(6-fluoro-1-methyl-1H-indazol-5-yl)pyridin-3-yl)piperidin-3-yl)-2,2-difluoroethan-1-ol]	–	1490	–	1 to 10	7850
Nc1ncnc2c1ncn2Cc1cc(C2CCCCC2)ncc1N1CCC[C@](N)([C@@H](O)C(F)F)C1 [Example 130, (R)-1-((R)-3-amino-1-(4-((6-amino-9H-purin-9-yl)methyl)-6-cyclohexylpyridin-3-yl)piperidin-3-yl)-2,2-difluoroethan-1-ol]	–	321	–	1 to 10	3520
COc1cc(F)c(-c2cc(Cn3cnc4c(N)ncnc43)c(N3CCC[C@](N)(c4cccc(Cl)n4)C3)cn2)cc1F [Example 187, (R)-9-((5-(3-amino-3-(6-chloropyridin-2-yl)piperidin-1-yl)-2-(2,5-difluoro-4-methoxyphenyl)pyridin-4-yl)methyl)-9H-purin-6-amine]	10 to 1000	383	815	–	–
Nc1ncnc2c1ncn2Cc1cc(-c2cc(F)c(C(F)F)cc2F)ncc1N1CCC[C@](N)([C@@H](O)C(F)F)C1 [Example 134, (R)-1-((R)-3-amino-1-(4-((6-amino-9H-purin-9-yl)methyl)-6-(4-(difluoromethyl)-2,5-difluorophenyl)pyridin-3-yl)piperidin-3-yl)-2,2-difluoroethan-1-ol]	–	601	–	10 to 1000	830
Nc1ncnc2c1ncn2Cc1cc(-c2ccc(F)c(F)c2)ncc1N1CCCC(N)(C(=O)N2CCCCC2)C1 (stereo not drawn) [Example 86, (3-amino-1-(4-((6-amino-9H-purin-9-yl)methyl)-6-(3,4-difluorophenyl)pyridin-3-yl)piperidin-3-yl)(piperidin-1-yl)methanone]	–	8690	–	10 to 1000	33300
COc1ccc(-c2cc(Cn3cnc4c(N)ncnc43)c(N3CCC[C@](N)([C@H](O)C(F)F)C3)cn2)c(Cl)c1 [Example 168, (S)-1-((R)-3-amino-1-(4-((6-amino-9H-purin-9-yl)methyl)-6-(2-chloro-4-methoxyphenyl)pyridin-3-yl)piperidin-3-yl)-2,2-difluoroethan-1-ol]	10 to 1000	997	4780	–	–
COc1ncc(-c2cc(Cn3cnc4c(N)ncnc43)c(N3CCC[C@](N)(c4cccc(Cl)n4)C3)cn2)cc1F [Example 231, (R)-9-((5-(3-amino-3-(6-chloropyridin-2-yl)piperidin-1-yl)-5′-fluoro-6′-methoxy-[2,3′-bipyridin]-4-yl)methyl)-9H-purin-6-amine]	10 to 1000	2150	7440	–	–
CC(C)C(C)C(=O)C1(N)CCCN(c2cnc(-c3ccc(F)c(F)c3)cc2Cn2cnc3c(N)ncnc32)C1 (stereo not drawn) [Example 89, 1-(3-amino-1-(4-((6-amino-9H-purin-9-yl)methyl)-6-(3,4-difluorophenyl)pyridin-3-yl)piperidin-3-yl)-2,3-dimethylbutan-1-one]	–	245	–	10 to 1000	684
Nc1ncnc2c1ncn2Cc1cc(-c2ccc(F)c(F)c2)ncc1N1CCCC(N)(C(=O)NC2CCOC2)C1 (stereo not drawn) [Example 85, 3-amino-1-(4-((6-amino-9H-purin-9-yl)methyl)-6-(3,4-difluorophenyl)pyridin-3-yl)-N-(tetrahydrofuran-3-yl)piperidine-3-carboxamide]	–	2080	–	10 to 1000	6490
COc1ccc(-c2cc(Cn3cnc4c(N)ncnc43)c(N3CCC[C@](N)(C(O)C(F)F)C3)cn2)c(C(F)(F)F)c1 (stereo in doubt) [Example 167, (R)-1-((R)-3-amino-1-(4-((6-amino-9H-purin-9-yl)methyl)-6-(4-methoxy-2-(trifluoromethyl)phenyl)pyridin-3-yl)piperidin-3-yl)-2,2-difluoroethan-1-ol]	10 to 1000	559	6120	–	–
COc1cc(F)c(-c2cc(Cn3cnc4c(N)ncnc43)c(N3CCC[C@](N)(c4cccc(Cl)n4)C3)cn2)c(F)c1 [Example 236, (R)-9-((5-(3-amino-3-(6-chloropyridin-2-yl)piperidin-1-yl)-2-(2,6-difluoro-4-methoxyphenyl)pyridin-4-yl)methyl)-9H-purin-6-amine]	10 to 1000	1390	6300	–	–
Nc1ncnc2c1ncn2Cc1cc(-c2cc(F)c(O)cc2F)ncc1N1CCC[C@](N)([C@H](O)C(F)F)C1 [Example 144, 4-(5-((R)-3-amino-3-((S)-2,2-difluoro-1-hydroxyethyl)piperidin-1-yl)-4-((6-amino-9H-purin-9-yl)methyl)pyridin-2-yl)-2,5-difluorophenol]	–	2580	–	10 to 1000	10400
Nc1ncnc2c1ncn2Cc1cc(-c2cc(F)c(F)cc2C(F)F)ncc1N1CCC[C@](N)([C@H](O)C(F)F)C1 [Example 171, (S)-1-((R)-3-amino-1-(4-((6-amino-9H-purin-9-yl)methyl)-6-(2-(difluoromethyl)-4,5-difluorophenyl)pyridin-3-yl)piperidin-3-yl)-2,2-difluoroethan-1-ol]	10 to 1000	886	5520	–	–

— patent publication US11420970B1 (NOVARTIS AG, priority 2019, dated 2022)
